The source of these data is US10655185B2, “Methods for diagnosis and prognosis of epithelial tumors” (H. Lee Moffitt Cancer Center and Research Institute, Inc., priority 2014, dated 2020).

The test system of the assay is LNCaP-104S cells. Description: Genome-wide miRNA expression profiling of androgen deprived / androgen blocked LNCaP cells. In kind it is cell-based. The text has this: FIGS. 1A and 1B show expression of miR-17-92 and Frabin in Androgen Deprived LNCaP Cells. The androgen dependent cell line, LNCaP-104S, was subjected to androgen deprivation or androgen blockade for 3 weeks. Genome-wide miRNA expression profiling identified the miR-17-92 family to be down regulated by 1 week, and further reduced at 3 weeks of treatment. […] FIG. 1B is a Western blot of FGD4/Frabin expression in treated and untreated LNCaP-104S cells.
Prolonged androgen blockade leads to outgrowth of androgen independent (AI) cells and the development of castration resistant prostate cancer (CRPC). The transition to androgen independence can occur through several adaptive mechanisms and usually results in the acquisition of a more aggressive phenotype, compared to their androgen sensitive progenitors. […] However, the role of miRNAs in progression of androgen sensitive prostate cancer to CRPC has not been clearly defined. To study this transition, androgen sensitive (AS) LNCaP prostate cancer cells were subjected to androgen blockade until a subset of cells (CDXR) survived. […] The miR-17-92 cluster is one of the groups of miRNAs that is down regulated as the cancer cells progresses towards androgen […] (ADT) resistance.

The structures appear in SMILES notation.

Take `CC(O)(CS(=O)(=O)c1ccc(F)cc1)C(=O)Nc1ccc(C#N)c(C(F)(F)F)c1` (stereo not shown) [CDX]: where the note is “1 wk CDX”, the “fold change in expression (Δ Change) of hsa-miR-17” value is given as −3.37, the “fold change in expression (Δ Change) of hsa-miR-17*” value is recorded as −3.13, the “fold change in expression (Δ Change) of hsa-miR-18a” value was −4.36 and the “fold change in expression (Δ Change) of hsa-miR-18b” value is on record as −2.28. Also, under “1 wk CDX”, the “fold change in expression (Δ Change) of hsa-miR-20a” value was −3.31, the “fold change in expression (Δ Change) of hsa-miR-20a*” value is −1.25, the “fold change in expression (Δ Change) of hsa-miR-20b*” value was −0.56 and the “fold change in expression (Δ Change) of hsa-miR-106a” value was −3.18. In addition, under “3 wks CDX”, the “fold change in expression (Δ Change) of hsa-miR-17” value is listed as −24.99, the “fold change in expression (Δ Change) of hsa-miR-17*” value is given as −3.94, the “fold change in expression (Δ Change) of hsa-miR-18a” value is listed as −14.13 and the “fold change in expression (Δ Change) of hsa-miR-18b” value was −21.36. Besides, where the note is “3 wks CDX”, the “fold change in expression (Δ Change) of hsa-miR-20a” value is −4.12, the “fold change in expression (Δ Change) of hsa-miR-20a*” value was −18.17, the “fold change in expression (Δ Change) of hsa-miR-20b*” value is given as −4.60 and the “fold change in expression (Δ Change) of hsa-miR-106a” value is on record as −9.40.
